Laboratory results taken from publication PMC9822073, “Synthesis, Cytotoxic Evaluation, and Structure-Activity Relationship of Substituted Quinazolinones as Cyclin-Dependent Kinase 9 Inhibitors” (Molecules, 2022).
Like-named read-outs stand apart in the source and are kept apart here.

Columns and labels:
CDK9/cyclin T = CDK9/cyclin T (Homo sapiens, UniProt P50750); test: In vitro luminescent CDK9 kinase assay (Kinase-Glo MAX); assay type: biochemical; conditions: for reduction in CDK9 inhibitory activity: compared with compound 25
Sequence of CDK9/cyclin T (P50750 whole entry): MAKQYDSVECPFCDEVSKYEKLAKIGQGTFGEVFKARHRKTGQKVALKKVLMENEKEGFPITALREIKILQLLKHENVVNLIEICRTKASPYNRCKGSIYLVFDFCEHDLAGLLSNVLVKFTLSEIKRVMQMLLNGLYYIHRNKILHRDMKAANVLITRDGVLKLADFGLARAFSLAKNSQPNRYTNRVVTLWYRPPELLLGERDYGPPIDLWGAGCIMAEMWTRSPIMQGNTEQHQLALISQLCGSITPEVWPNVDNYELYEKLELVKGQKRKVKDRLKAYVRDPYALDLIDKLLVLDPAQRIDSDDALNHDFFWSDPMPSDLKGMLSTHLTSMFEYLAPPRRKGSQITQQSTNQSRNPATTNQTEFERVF
Sequence of CDK9/cyclin T (O60563 whole entry partner): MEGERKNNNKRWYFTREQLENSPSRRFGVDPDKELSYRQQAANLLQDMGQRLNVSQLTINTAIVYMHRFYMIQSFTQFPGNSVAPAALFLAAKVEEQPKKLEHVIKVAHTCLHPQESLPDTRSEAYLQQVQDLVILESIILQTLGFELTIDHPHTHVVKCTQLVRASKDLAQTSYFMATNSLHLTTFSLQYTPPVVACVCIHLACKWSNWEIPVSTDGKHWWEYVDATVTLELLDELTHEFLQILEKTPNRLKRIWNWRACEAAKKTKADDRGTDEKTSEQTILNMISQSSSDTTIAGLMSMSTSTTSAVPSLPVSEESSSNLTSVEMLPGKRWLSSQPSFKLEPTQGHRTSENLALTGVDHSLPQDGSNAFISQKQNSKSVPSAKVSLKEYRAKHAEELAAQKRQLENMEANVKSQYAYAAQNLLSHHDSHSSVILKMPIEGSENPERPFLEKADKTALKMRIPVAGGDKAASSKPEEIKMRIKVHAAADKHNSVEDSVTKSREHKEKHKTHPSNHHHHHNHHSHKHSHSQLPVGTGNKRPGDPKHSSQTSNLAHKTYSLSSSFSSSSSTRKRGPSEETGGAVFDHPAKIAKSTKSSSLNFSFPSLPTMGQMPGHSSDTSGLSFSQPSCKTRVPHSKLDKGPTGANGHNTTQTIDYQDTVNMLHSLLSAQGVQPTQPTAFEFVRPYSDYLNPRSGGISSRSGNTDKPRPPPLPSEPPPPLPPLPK
Procedure: In vitro luminescent CDK9 kinase assay was performed as reported previously using Kinase- Glo® MAX as a detection reagent. Briefly, 5 μL of each inhibitor in concentrations ranging from 10 μM to 1 nM (10 μM, 1 μM, 0.1 μM, 0.01 μM, and 0.001 μM) and 10 μL of enzyme substrate were mixed in 20 μL of kinase assay buffer (obtained from BPS Bioscience, catalog #79334) at room temperature. Then 20 μL of 5 ng/μL CDK9/cyclin T was added to the mixture to initiate the reaction. After 45 min, 50 μL of Kinase-Glo® Max reagent was added, and the resulting mixture was incubated for 15 min at room temperature. The chemiluminescence was measured microplate reader, and IC50 values were calculated using Prism 8.0 (GraphPad Software, San Diego, CA, USA).

MCF-7 cell line = test: MTT metabolic (antiproliferative) assay; conditions: read-out: Cytotoxicity IC50, MCF-7, 48 h, mean ± SD
Procedure: The antiproliferative activity of the twenty-seven compounds was evaluated by 3-(4,5-dimethylthiazol-2-yl)-2,5-diphenyltetrazolium bromide (MTT) metabolic assay against the MCF-7 cell line, according to a previous method [26].

CDK9 = system: CDK9; parameters: method as in PMID 33142413, PMID 24150998; conditions: Figure 2; cited from earlier work
[1] = CDK9 IC50 as used for LE and LLE, read-out: IC50 (CDK9, Table 4)
[2] = negative log of the CDK9 IC50, read-out: pIC50 (converted)

Row | Compound | IC50 (CDK9/cyclin T; [1]) [nM] | IC50 (CDK9/cyclin T; mean ± SD, read-out: CDK9 IC50) [nM] | IC50 (MCF-7 cell line) [nM] | also measured
1 | CCOc1ccc(NC(=O)CSc2nc3ccccc3c(=O)n2CCc2ccc(S(N)(=O)=O)cc2)cc1 [Compound 7] | 115 | 115 ± 2 | 1570 ± 40 | increase of CDK9 inhibitory activity (CDK9/cyclin T; compared to the hit compound 1): around 6 fold
2 | NS(=O)(=O)c1ccc(CCn2c(SCC(=O)Nc3ccccc3)nc3ccccc3c2=O)cc1 [Compound 3] | 421 | 421 ± 6 | 820 ± 80 | –
3 | COc1ccc(CNC(=O)CSc2nc3ccccc3c(=O)n2CCc2ccc(S(N)(=O)=O)cc2)cc1 [Compound 13] | 334 | 334 ± 6 | 840 ± 150 | –
4 | NS(=O)(=O)c1ccc(CCn2c(SCc3ccccc3)nc3ccccc3c2=O)cc1 [VI] | – | – | – | IC50 (CDK9): 67000 nM
5 | Cc1ccc2nc(-c3cccc(Br)c3)n(N)c(=O)c2c1 [Compound 27, 3-Amino-2-(3-bromophenyl)-6-methylquinazolin-4(3H)-one] | 835 | 835 ± 6 | 28700 ± 920 | reduction in CDK9 inhibitory activity (CDK9/cyclin T): approximately 6 fold
6 | O=c1[nH]c(-c2cccs2)nc2ccc(I)cc12 [Compound 18] | 296 | 296 ± 3 | 21400 ± 680 | –
7 | COc1ccc(CNC(=O)CSc2nc3ccccc3c(=O)n2CCc2ccc(S(N)(=O)=O)cc2)cc1OC [Compound 14] | 229 | 229 ± 4 | 590 ± 100 | –
8 | CC(=O)c1ccc(NC(=O)CSc2nc3ccccc3c(=O)n2CCc2ccc(S(N)(=O)=O)cc2)cc1 [Compound 5] | 829 | 829 ± 14 | 180 ± 90 | –
9 | Cc1ccc(NC(=O)c2cccc(Br)c2)c(C(=O)O)c1 [Compound 23, 2-(3-Bromobenzamido)-5-methylbenzoic acid] | – | 210 ± 3 | 11500 ± 370 | IC50 (CDK9/cyclin T; [2]): 209 nM; melting point: 155 to 157 °C
10 | NS(=O)(=O)c1ccc(CCn2c(SCC(=O)Nc3ccc(F)cc3)nc3ccccc3c2=O)cc1 [Compound 11] | 336 | 336 ± 5 | 3860 ± 780 | –
11 | Cc1ccc(-c2nc3ccc(Cl)cc3c(=O)[nH]2)cc1 [Compound 19] | 282 | 282 ± 3 | 12300 ± 390 | –
12 | NS(=O)(=O)c1ccc(CCn2c(=S)[nH]c3ccccc3c2=O)cc1 [Compound 1, 2-Mercapto-3-(4-sulfamoylphenethyl)quinazolin-4-one] | 644 | 644 ± 7 | 650 ± 150 | –
13 | COc1cc(NC(=O)CSc2nc3ccccc3c(=O)n2CCc2ccc(S(N)(=O)=O)cc2)cc(OC)c1OC [Compound 8] | 501 | 501 ± 9 | 2480 ± 320 | –
14 | O=c1[nH]c(-c2ccc(Cl)cc2)nc2ccc([N+](=O)[O-])cc12 [Compound 20] | 434 | 434 ± 3 | 6070 ± 190 | reduction in potency against CDK9 (CDK9/cyclin T; compound 20 versus compound 19): 1 fold
15 | Cc1ccc2nc(-c3cccc(Br)c3)n(O)c(=O)c2c1 [Compound 28, 2-(3-Bromophenyl)-3-hydroxy-6-methylquinazolin-4(3H)-one] | – | 210 ± 2 | 6270 ± 200 | IC50 (CDK9/cyclin T; [2]): 209 nM
16 | NS(=O)(=O)c1ccc(CCn2c(SCC(=O)Nc3ccc(Br)cc3)nc3ccccc3c2=O)cc1 [Compound 9] | 131 | 131 ± 2 | 1720 ± 260 | –
17 | CC(Sc1nc2ccccc2c(=O)n1CCc1ccc(S(N)(=O)=O)cc1)C(=O)Nc1ccccc1 (centres unmarked) [Compound 15] | 444 | 444 ± 7 | 670 ± 180 | –
18 | CN1CC[C@H](c2c(O)cc(O)c3c(=O)cc(-c4ccccc4Cl)oc23)[C@H](O)C1 [Flavopiridol, flavopiridol, reference compound] | – | – | 40 ± 1 | –
19 | NC(=O)CSc1nc2ccccc2c(=O)n1CCc1ccc(S(N)(=O)=O)cc1 [Compound 2] | 454 | 454 ± 6 | 2310 ± 390 | –
20 | Cc1ccc2nc(-c3cccc(Br)c3)[nH]c(=S)c2c1 [Compound 26, 2-(3-Bromophenyl)-6-methylquinazoline-4(3H)-thione] | 289 | 289 ± 2 | 5210 ± 170 | reduction in CDK9 inhibitory activity (CDK9/cyclin T): 2 fold
21 | NS(=O)(=O)c1ccc(CCn2c(SCC(=O)Nc3ccc(Cl)cc3)nc3ccccc3c2=O)cc1 [Compound 10] | 193 | 193 ± 3 | 1040 ± 70 | –
22 | CC(Sc1nc2ccccc2c(=O)n1CCc1ccc(S(N)(=O)=O)cc1)C(=O)Nc1ccc(Cl)cc1 (centres unmarked) [Compound 16] | – | 350 ± 6 | 730 ± 10 | IC50 (CDK9/cyclin T; [2]): 347 nM
23 | Cc1ccc2nc(-c3cccc(Br)c3)[nH]c(=O)c2c1 [Compound 25, 2-(3-Bromophenyl)-6-methylquinazolin-4(3H)-one] | 142 | 142 ± 1 | 16800 ± 540 | –
24 | Cc1ccc2nc(-c3cccc(Br)c3)oc(=O)c2c1 [Compound 24, 2-(3-Bromophenyl)-6-methyl-4H-benzo[d][1,3]oxazin-4-one] | 486 | 486 ± 4 | 10400 ± 330 | reduction in CDK9 inhibitory activity (CDK9/cyclin T): 3 fold
25 | NS(=O)(=O)c1ccc(CCn2c(SCC(=O)NCc3ccc(F)cc3)nc3ccccc3c2=O)cc1 [Compound 12] | 218 | 218 ± 4 | 690 ± 230 | –
26 | Cc1ccc(NC(=O)CSc2nc3ccccc3c(=O)n2CCc2ccc(S(N)(=O)=O)cc2)cc1 [Compound 4] | 788 | 788 ± 12 | 160 ± 20 | –
27 | COc1ccc(NC(=O)CSc2nc3ccccc3c(=O)n2CCc2ccc(S(N)(=O)=O)cc2)cc1 [Compound 6] | 463 | 463 ± 7 | 4650 ± 1380 | –
28 | O=c1[nH]cnc2ccc(I)cc12 [Compound 17] | 639 | 639 ± 4 | 3880 ± 120 | –
